Results reported in US7718688B2, “Nitrobenzindoles and their use in cancer therapy” (Auckland Uniservices Limited, priority 2004, dated 2010).

What was measured:
[1] = One-electron reduction potential E(1) by pulse radiolysis; assay type: physicochemical; conditions: determined by pulse radiolysis
[2] = system: SKOV3: human ovarian carcinoma cell line; test: Proliferation IC50 assay, oxic/hypoxic, SKOV3; assay type: cell-based; conditions: Table 3; for IC50: Homo sapiens, SK-OV-3, 4 h exposure under aerobic conditions; for HCR (hypoxic cytotoxicity ratio) SKOV3: IC50(aerobic)/IC10(hypoxic)
[3] = system: HT29: human colon cancer cell line; test: Proliferation IC50 assay, oxic/hypoxic, HT29; assay type: cell-based; conditions: for IC50: Homo sapiens, HT-29, 4 h exposure under aerobic conditions; for IC50 / HCR (hypoxic cytotoxicity ratio) HT29: Table 3; for HCR (hypoxic cytotoxicity ratio) HT29: IC50(aerobic)/IC10(hypoxic)
HT29 clonogens = test: Clonogenic assay (C10), oxic/hypoxic, HT29; assay type: cell-based, human; conditions: for Clonogenic HCR HT29: C10(aerobic)/C10(hypoxic); for Clonogenic C10 HT29 Oxic: concentration to reduce HT29 clonogens to 10% of controls, 4 hr exposure under aerobic conditions
[4] = Hypoxic metabolism with HT29 tumour S9 (HPLC); conditions: 26 at 10 μM with S9, 2 h, HPLC
Excerpt: Metabolism of compounds of Formula I was investigated using S9 preparations from HT29 tumours grown as xenografts in CD-1 mice.

[5] = Plasma pharmacokinetics after intravenous 36 in mice (LC/MS/MS); assay type: in vivo, CD-1 mice (nu/+ heterozygotes); conditions: CD-1 (nu/+ heterozygotes), mouse
Procedure: The compounds were assayed in plasma, following precipitation of proteins with methanol, using an LC/MS/MS (triple quadrupole mass spectrometer).

SMILES | E(1): one-electron reduction potential [1] [mV] | IC50 [2] [µM] | HCR (hypoxic cytotoxicity ratio) SKOV3 [2] | IC50 [3] [µM] | HCR (hypoxic cytotoxicity ratio) HT29 [3] | HCR: Hypoxic cytotoxicity ratio for HT29 cell line ([3]; Table 5, as defined in Table 3) | Clonogenic HCR HT29 (HT29 clonogens) | Clonogenic C10 HT29 Oxic (HT29 clonogens) [µM] | formation of 60 under hypoxic conditions ([4]; hypoxic) | formation of 60 under oxic conditions ([4]; oxic) | AUC ([5]; intravenous, 42.1 μmol/kg, 35 derived from 36, plasma, mice) [µM·h] | AUC ([5]; iv, 42.1 umol/kg, plasma, CD-1 mice, 36 i.v. 42.1 μmol/kg, 35 as metabolite of 36, mean) [µM·h] | clearance ([5]; iv, 42.1 umol/kg, plasma, CD-1 mice, 36 i.v. 42.1 μmol/kg, 35 as metabolite of 36, mean, read-out: Cl (clearance)) [mL/min/kg] | half-life ([5]; iv, 42.1 umol/kg, plasma, CD-1 mice, 36 i.v. 42.1 μmol/kg, 35 as metabolite of 36, mean, read-out: T1/2 (terminal half-life)) [min] | Vd ([5]; iv, 42.1 umol/kg, plasma, CD-1 mice, 36 i.v. 42.1 μmol/kg, 35 as metabolite of 36, mean, read-out: Vd (volume of distribution based on the terminal phase)) [L/kg] | melting point [°C] | AUC for 90% kill of HT29 cells under hypoxic conditions (HT29 clonogens; estimated from the clonogenic assay data in Table 3) [µM·min]
CN(C)CCOc1ccc2[nH]c(C(=O)N3CC(CCl)c4c3cc([N+](=O)[O-])c3cc(S(N)(=O)=O)ccc43)cc2c1 (stereo not drawn) [Compound 26, 1-(Chloromethyl)-3-{5-[2-(dimethylamino)ethoxy]indol-2-carbonyl}-5-nitro-1,2-dihydro-3H-benzo[e]indole-7-sulfonamide] | −390 ± 9 | 6.9 | 280 | 4.6 | 330 | 330 | >30.9 | >42 | major product of hypoxic metabolism | not detected | – | – | – | – | – | – | –
CN(C)CCOc1ccc2[nH]c(C(=O)N3CC(CCl)c4c3cc([N+](=O)[O-])c3cc(S(=O)(=O)NCCO)ccc43)cc2c1 (stereo not drawn) [Compound 35, 1-(Chloromethyl)-3-{5-[2-(dimethylamino)ethoxy]indol-2-carbonyl}-N-(2-hydroxyethyl)-5-nitro-1,2-dihydro-3H-benzo[e]indole-7-sulfonamide] | −392 ± 7 | 9.2 | 250 | 5.5 | 90 | – | 74.4 | 115 | – | – | ~11.7 | 11.7 | 61 | 43 | 3.8 | 205 to 210 | 371
